Measured values: ChEMBL document CHEMBL1157950, “Sarcophytonolides E-H, cembranolides from the Hainan soft coral Sarcophyton latum” (J Nat Prod, 2006)
Active and inactive are the calls of the source. The rule behind the calls is not given here.

Columns and labels:
A549 = assay: Cytotoxicity against human A549 cells at 20 ug/mL; format: functional, cell-based
HL-60 = assay: Cytotoxicity against human HL60 cells at 20 ug/mL; format: functional, cell-based

Row | SMILES | Activity (A549) | Activity (HL-60)
1 | C/C1=C\[C@@H](O)CC2=C[C@@H](OC2=O)[C@H](C(C)C)CC/C(C)=C/CC1 | inactive | inactive
2 | C/C1=C\[C@H](O)CC2=C[C@@H](OC2=O)[C@H](C(C)C)CC/C(C)=C/CC1 | inactive | inactive
3 | C/C1=C\CC[C@H](C)C[C@H](O)CC2=C[C@@H](OC2=O)[C@H](C(C)C)CC1 | inactive | inactive
4 | CC(=O)O[C@H]1C/C(C)=C/CC/C(C)=C/[C@H](O)CC2=C[C@H](OC2=O)[C@@H]1C(C)C | inactive | inactive
